Data taken from paper PMC6502800, “Visualizing the cellular route of entry of a cystine-knot peptide with Xfect transfection reagent by electron microscopy” (Scientific Reports, 2019).

What was measured:
HeLa cells [1] = assay: Uptake of cargo into cells pre-treated with Xfect
Protocol: Cells were fixed with 4% PFA and processed as described in methods. […] Values were normalized to the 6 h Xfect treated samples. Mean ± SD. n = 1000 cells. Representative images from three independent experiments are shown. Scale bar, 20 µm.
(a–d) HeLa cells were incubated with Xfect for indicated times then washed with PBS for three times and incubated with 30 nM SYTOX Red (a,b, Cy5 channel) or 200 nM YOYO-3 Iodide (c,d, Texas Red channel) for 20 min, and washed with PBS again. Cells were fixed with 4% PFA and processed as described in methods. […] Values were normalized to the 24 h Xfect treated samples. Mean ± SD. n = 1000 cells. Representative images from three independent experiments are shown. Scale bar, 20 µm.
cells.HeLa cells were incubated with Xfect for the indicated times, then washed with PBS
forthree times and incubated with 30 nM SYTOX Red (a, Cy5 channel) or 200 nM YOYO-3
Iodide (b, Texas Red channel) for 20 min, and washed with PBS again. Cells were fixed with
4% PFA and processed as described in methods. Representative images from three
independent experiments are shown. Scale bar, 20 µm. Images are normalized to saturation
atthe 24 h time point in order to show the cellular distribution of early time point samples.

HeLa cells [2] = assay: Detergent-based cell permeabilization assay
Protocol: Figure 4 Internalized rEETI-II/Xfect is found in compartments that are resistant to detergent permeabilization. […] Cells were then incubated with PBS, 0.1% Triton X-100, 0.04% Saponin, 0.01% Saponin, or 25 μM Digitonin in PBS for 5 min at room temperature, washed and imaged. […] Mean ± SD. n = 1000 cells. Representative images from at least three independent experiments are shown. Scale bar, 20 μm.
For cell permeabilization experiments, HeLa cells were incubated with 5 μM rEETI-II-A488 with or without Xfect for 60 min, or transferrin (labeled with Alexa 555, 0.2 mg/ml) for 10 min, at 37 °C/5% CO2, washed three times with cold PBS. Cells were then fixed with 4% PFA for 20 min at room temperature, washed three times with PBS, and incubated with either PBS, or detergent containing PBS for 5 min at room temperature. Cells were washed again. […] Fluorescence images were captured on a high throughput ImageXpress Micro XL imaging system (Molecular Devices) and images were analyzed by MetaXpress 4.0. Fluorescence intensity values above a threshold defined using the DMSO-treated samples were measured and used to quantify integrated fluorescence intensity per cell or percentage of dye-positive cells. […] Cells were incubated with Hoechst 333421 (5 µg/ml in PBS) for 10 min and washed three times with PBS then imaged, analyzed as described above. […]

Row | Molecule | uptake of cell impermeable dye into cells pre-treated with Xfect (HeLa cells [1]; HeLa cells pre-treated with Xfect 3 h, washed, then dye 20 min (SYTOX Red 30 nM; YOYO-3 Iodide 200 nM), fluorescence imaging) | uptake of dye into cells in the absence of Xfect preincubation (HeLa cells [1]; HeLa cells, no Xfect, dye 20 min (SYTOX Red 30 nM; YOYO-3 Iodide 200 nM), negative control) | internalized transferrin staining after detergent permeabilization (HeLa cells [2])
1 | C[n+]1c(C=CC=C2C=CN(CCC[N+](C)(C)CCC[N+](C)(C)CCCN3C=CC(=CC=Cc4oc5ccccc5[n+]4C)c4ccccc43)c3ccccc32)oc2ccccc21 [YOYO-3 Iodide] | observed to enter into cells | little to no uptake | –
2 | transferrin-Alexa555: transferrin labeled with Alexa 555, marker of early and recycling endosomes | – | – | resistant to detergent extraction
